Among the data in US10941157B2, “Pesticidal compositions and uses thereof” (Gilead Apollo, LLC, priority 2015, dated 2021) are IC90 values, retold here.

Common to all, as to format: cell-based
The subject of assay [1] is Fusarium virguliforme (Fv). The experiment in a line: In vitro pathogen growth inhibition assay, Fv. Put shortly: (§1)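 Value reported is the compound concentration reaching ≥90% growth inhibition, from OD readings at 24 and 48 h after blank subtraction, confirmed visually. Inoculum was spores diluted in 17% V8 medium, except Rs, using 1.5 mm mycelial plugs in ¼ PDB; actual compound concentration corrected via OD600.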

The subject of the next assay is Diplodia maydis (Dm). The experiment in a line: In vitro pathogen growth inhibition assay, Dm. The note with it: Stenocarpella maydis, 48 h. The essentials:
as §1

A further assay has as its system Rhizoctonia solani (Rs). The experiment in a line: In vitro pathogen growth inhibition assay, Rs (mycelial plugs). Conditions: Rhizoctonia solani, 48 h. The essentials:
as §1

For assay [2], the system named is Fusarium moniliforme (Fm). Put plainly: In vitro pathogen growth inhibition assay, Fm. The note with it: Fusarium verticillioides. Put shortly:
as §1

The test system of assay [3] is Collectotrichum graminicola (Cg). The experiment in a line: In vitro pathogen growth inhibition assay, Cg. Conditions: 48 h. Put shortly:
as §1

In another assay the test system is Botrtyis cinerea (Bc). The experiment in a line: In vitro pathogen growth inhibition assay, Bc. Conditions: 48 h. The essentials:
as §1

A further assay deals with Septoria tritici (St). The experiment in a line: In vitro pathogen growth inhibition assay, St. The note with it: Zymoseptoria tritici, 48 h. The essentials:
as §1

Assay [4] concerns Phytophthora capsici (Pc). Put plainly: In vitro pathogen growth inhibition assay, Pc. Conditions: 48 h. Put shortly: as §1
[5] abbreviates: ≥90% growth inhibition, 48 hours, vs 2% DMSO control, read-out: Compound Concentration (ppm) sufficient for ≥90% inhibition of Fv.
[6] abbreviates: ≥90% growth inhibition, 48 hours, vs 2% DMSO control, read-out: Compound Concentration (ppm) sufficient for ≥90% inhibition of Dm.
The mark [7] stands for this setting: ≥90% growth inhibition, mycelial plugs, 48 hours, vs 2% DMSO control, read-out: Compound Concentration (ppm) sufficient for ≥90% inhibition of Rs.
Setting [8] is: ≥90% growth inhibition, 48 hours, vs 2% DMSO control, read-out: Compound Concentration (ppm) sufficient for ≥90% inhibition of Fm.
The mark [9] stands for this setting: ≥90% growth inhibition, 48 hours, vs 2% DMSO control, read-out: Compound Concentration (ppm) sufficient for ≥90% inhibition of Cg.
Setting [10] is: ≥90% growth inhibition, 48 hours, vs 2% DMSO control, read-out: Compound Concentration (ppm) sufficient for ≥90% inhibition of Bc.
[11] abbreviates: ≥90% growth inhibition, 48 hours, vs 2% DMSO control, read-out: Compound Concentration (ppm) sufficient for ≥90% inhibition of St.
The mark [12] stands for this setting: ≥90% growth inhibition, 48 hours, vs 2% DMSO control, read-out: Compound Concentration (ppm) sufficient for ≥90% inhibition of Pc.
[13] abbreviates: concentration sufficient to ≥90% inhibition of growth, 48 hours vs 2% DMSO control, read-out: Compound Concentration (ppm) for ≥90% inhibition, Fv.
Where [14] appears, read: concentration sufficient to ≥90% inhibition of growth, 48 hours vs 2% DMSO control, read-out: Compound Concentration (ppm) for ≥90% inhibition, Dm.
[15] abbreviates: concentration sufficient to ≥90% inhibition of growth, 48 hours vs 2% DMSO control, read-out: Compound Concentration (ppm) for ≥90% inhibition, Rs.
Setting [16] is: concentration sufficient to ≥90% inhibition of growth, 48 hours vs 2% DMSO control, read-out: Compound Concentration (ppm) for ≥90% inhibition, Fm.
The mark [17] stands for this setting: concentration sufficient to ≥90% inhibition of growth, 48 hours vs 2% DMSO control, read-out: Compound Concentration (ppm) for ≥90% inhibition, Cg.
[18] abbreviates: concentration sufficient to ≥90% inhibition of growth, 48 hours vs 2% DMSO control, read-out: Compound Concentration (ppm) for ≥90% inhibition, Bc.
Where [19] appears, read: concentration sufficient to ≥90% inhibition of growth, 48 hours vs 2% DMSO control, read-out: Compound Concentration (ppm) for ≥90% inhibition, St.
Where [20] appears, read: concentration sufficient to ≥90% inhibition of growth, 48 hours vs 2% DMSO control, read-out: Compound Concentration (ppm) for ≥90% inhibition, Pc.

Converted amounts (≈) assume the structure as drawn. Like-named read-outs stand apart in the source and are kept apart here.

Consider `COc1ccc(F)cc1[C@H](Cn1c(=O)n(C(C)(C)C(=O)N2CCCC2)c(=O)c2c(C)c(-n3nccn3)sc21)OC[C@@H](C)O` [Compound I-167], for which the IC90 in assay [1] (setting [5]) was 2 µg/mL (≈ 3.25 µM); with Diplodia maydis (Dm) (setting [6]) it was 2 µg/mL (≈ 3.25 µM); with Rhizoctonia solani (Rs) (setting [7]), at least 0.4 µg/mL; in assay [2] (setting [8]), at least 0.08 µg/mL; in assay [3] (setting [9]), at least 0.4 µg/mL; in the assay on Botrtyis cinerea (Bc) (setting [10]), 2 µg/mL (≈ 3.25 µM). Besides, the IC90 in the assay with Septoria tritici (St) (setting [11]) is over 50 µg/mL; in assay [4] (setting [12]), 50 µg/mL (≈ 81.3 µM).
Consider `COc1ccc(F)cc1[C@H](Cn1c(=O)n(C(C)(C)C(N)=O)c(=O)c2c(C)c(-n3cccn3)sc21)OC1CCC(=O)CC1` [Compound I-170], for which the IC90 in assay [1] (setting [5]) was over 50 µg/mL; in the assay on Diplodia maydis (Dm) (setting [6]), 50 µg/mL (≈ 83.7 µM); in the assay with Rhizoctonia solani (Rs) (setting [7]), 50 µg/mL (≈ 83.7 µM); in assay [2] (setting [8]) it was at least 2 µg/mL; in assay [3] (setting [9]), at least 50 µg/mL; in the assay on Botrtyis cinerea (Bc) (setting [10]), 10 µg/mL (≈ 16.7 µM). Moreover, the IC90 (in the assay with Septoria tritici (St) (setting [11]); in assay [4] (setting [12])) was over 50 µg/mL throughout.
As to `COCCO[C@@H](Cn1c(=O)n([C@@H](C)C(=O)NC(C)C)c(=O)c2c(C)c(-n3nccn3)sc21)c1cc(F)ccc1OC` [Compound I-172], the IC90 in assay [1] (setting [5]) was determined as 50 µg/mL (≈ 84.9 µM); in the assay on Diplodia maydis (Dm) (setting [6]), 10 µg/mL (≈ 17 µM); with Rhizoctonia solani (Rs) (setting [7]), 10 µg/mL (≈ 17 µM); in assay [2] (setting [8]) it was 2 µg/mL (≈ 3.4 µM); in assay [3] (setting [9]), 50 µg/mL (≈ 84.9 µM); with Botrtyis cinerea (Bc) (setting [10]) it was 2 µg/mL (≈ 3.4 µM). The IC90 (in the assay with Septoria tritici (St) (setting [11]); in assay [4] (setting [12])) was over 50 µg/mL throughout.
Take `COc1ccc(F)cc1[C@H](Cn1c(=O)n(C(C)(C)C(=O)NC(C)C)c(=O)c2c(C)c(-n3nccn3)sc21)OCCN(C)C` [Compound I-173]: the IC90 in assay [1] (setting [13]) is over 50 µg/mL; in the assay on Diplodia maydis (Dm) (setting [14]) it was over 50 µg/mL; in the assay with Rhizoctonia solani (Rs) (setting [15]), 10 µg/mL (≈ 16.2 µM); in assay [2] (setting [16]), 50 µg/mL (≈ 81.2 µM); in assay [3] (setting [17]), at least 50 µg/mL; with Botrtyis cinerea (Bc) (setting [18]), 50 µg/mL (≈ 81.2 µM). The IC90 (in the assay with Septoria tritici (St) (setting [19]); in assay [4] (setting [20])) was over 50 µg/mL in each case.
On to `CCOC(=O)c1sc2c(c1C)c(=O)n(C(C)(C)C(N)=O)c(=O)n2C[C@H](OC1CCOCC1)c1ccccc1OC` [Compound I-174], for which the IC90 was determined as 10 µg/mL (≈ 17.4 µM) in assay [1] (setting [13]); 10 µg/mL (≈ 17.4 µM) with Diplodia maydis (Dm) (setting [14]); 50 µg/mL (≈ 87.2 µM) with Rhizoctonia solani (Rs) (setting [15]); 10 µg/mL (≈ 17.4 µM) in assay [2] (setting [16]); 50 µg/mL (≈ 87.2 µM) in assay [3] (setting [17]); 10 µg/mL (≈ 17.4 µM) with Botrtyis cinerea (Bc) (setting [18]). Besides, the IC90 (in the assay on Septoria tritici (St) (setting [19]); in assay [4] (setting [20])) was over 50 µg/mL throughout.
With `CCNC(=O)C(C)(C)n1c(=O)c2c(C)c(C(=O)OCC)sc2n(C[C@H](OC2CCOCC2)c2ccccc2OC)c1=O` [Compound I-175], the IC90 in assay [1] (setting [13]) was 10 µg/mL (≈ 16.6 µM); in the assay with Diplodia maydis (Dm) (setting [14]) it was 10 µg/mL (≈ 16.6 µM); in the assay with Rhizoctonia solani (Rs) (setting [15]), over 50 µg/mL; in assay [2] (setting [16]) it was 10 µg/mL (≈ 16.6 µM); in assay [3] (setting [17]), 50 µg/mL (≈ 83.1 µM); with Botrtyis cinerea (Bc) (setting [18]), 2 µg/mL (≈ 3.32 µM). For the same molecule, the IC90 (in the assay on Septoria tritici (St) (setting [19]); in assay [4] (setting [20])) was over 50 µg/mL throughout.
Regarding `CCOC(=O)c1sc2c(c1C)c(=O)n(C(C)(C)C(=O)NC(C)C)c(=O)n2C[C@H](OCCOC)c1cc(F)ccc1OC` [Compound I-177], the IC90 in assay [1] (setting [5]) is 0.4 µg/mL (≈ 0.658 µM); in the assay on Diplodia maydis (Dm) (setting [6]), 2 µg/mL (≈ 3.29 µM); in the assay on Rhizoctonia solani (Rs) (setting [7]), 10 µg/mL (≈ 16.5 µM); in assay [2] (setting [8]) it was 0.08 µg/mL (≈ 0.132 µM); in assay [3] (setting [9]), 2 µg/mL (≈ 3.29 µM); with Botrtyis cinerea (Bc) (setting [10]), 2 µg/mL (≈ 3.29 µM). For the same molecule, the IC90 (in the assay on Septoria tritici (St) (setting [11]); in assay [4] (setting [12])) was over 50 µg/mL throughout.
In the case of `CCOC(=O)c1sc2c(c1C)c(=O)n(C(C)(C)C(=O)N1CCCC1)c(=O)n2C[C@H](OCCO)c1cc(F)ccc1OC` [Compound I-178], the IC90 in assay [1] (setting [5]) is 2 µg/mL (≈ 3.3 µM); with Diplodia maydis (Dm) (setting [6]), 2 µg/mL (≈ 3.3 µM); in the assay with Rhizoctonia solani (Rs) (setting [7]), 0.4 µg/mL (≈ 0.66 µM); in assay [2] (setting [8]) it was 0.4 µg/mL (≈ 0.66 µM); in assay [3] (setting [9]), at least 0.4 µg/mL; with Botrtyis cinerea (Bc) (setting [10]), 2 µg/mL (≈ 3.3 µM). The IC90 in the assay with Septoria tritici (St) (setting [11]) is at least 50 µg/mL; in assay [4] (setting [12]) it was over 50 µg/mL.
